The source of these data is patent US11237158B2, “Time-resolved fluorescent immunochromatographic test strip for detecting paclitaxel drugs as well as preparation method and application thereof” (BEIJING DIAGREAT BIOTEC[…]., LTD., priority 2018, dated 2022).

SMILES strings stand for the structures. Where only a bound is given, the exact number is not on record here.

The assay deals with anti-PTX monoclonal antibody. Description: PTX analog interference test (cross reaction rate) on the time-resolved fluorescent immunochromatographic test strip. Type of assay: binding, mouse. As to the method: 20 ul of sample is accurately pipetted into 180 ul of sample diluent and mixed fully.
80 uL of sample solution to be tested is accurately pipetted into a test strip loading well with a micropipette, and reaction is carried out at room temperature (20-25° C.) for 15 min. The test strip is inserted into a load carrier of a fluorescence detector, an item to be tested is selected by touching a display screen, a “Detection Start” button is pressed, the fluorescence detector automatically scans the test strip, and a test result is read through the display screen of an instrument or printed.
Quantitative detection: after the test is completed, the instrument obtains the ratio of the time-resolved fluorescent intensity of the detection area on the test strip to the time-resolved fluorescent intensity of the quality control area. Based on a relationship curve of the ratio of the time-resolved fluorescent intensity of the detection area on the pre-built test strip to the time-resolved fluorescent intensity of the quality control area and the concentration of PTX drugs, the content of PTX drug in the sample to be tested is obtained, and finally, the content of the PTX drug in the sample to be tested is obtained by conversion.
The cross reaction rate is measured according to the method of Embodiment 2.
Several analogs of PTX are selected for interference testing.

In turn, `CC(=O)O[C@H]1C(=O)[C@@]2(C)[C@H]([C@H](OC(=O)c3ccccc3)[C@]3(O)C[C@H](OC(=O)[C@H](O)[C@@H](NC(=O)c4ccccc4)c4ccccc4)C(C)=C1C3(C)C)[C@]1(OC(C)=O)CO[C@@H]1C[C@@H]2O` [Paclitaxel] returned a Cross reaction rate (test concentration 100 ng/mL) of 100%.
With `C/C=C(\C)C(=O)N[C@@H](c1ccccc1)[C@@H](O)C(=O)O[C@H]1C[C@@]2(O)[C@@H](OC(=O)c3ccccc3)[C@@H]3[C@]4(OC(C)=O)CO[C@@H]4C[C@H](O)[C@@]3(C)C(=O)[C@H](OC(C)=O)C(=C1C)C2(C)C` [Cephalomannine], the Cross reaction rate (test concentration 1,000 ng/mL) is recorded as below 0.04%.
Still for that read-out and setting: to `CC(=O)OC1CC2(O)C(OC(=O)c3ccccc3)C3C4(OC(C)=O)COC4CC(O)C3(C)C(O)C(OC(C)=O)C(=C1C)C2(C)C` (stereo not drawn) [13-Acetyl-9-dihydrobaccatin III] belongs below 0.01%; to `CC(=O)O[C@H]1C(=O)[C@@]2(C)[C@H]([C@H](OC(=O)c3ccccc3)[C@]3(O)C[C@H](O)C(C)=C1C3(C)C)[C@]1(OC(C)=O)CO[C@@H]1C[C@@H]2O` [Baccatin III], below 0.01%.
Still for that read-out and setting: the result for `CC(=O)OC1CC2(OC(C)=O)C(OC(C)=O)C3C4(CO4)C(O)CC(OC(C)=O)C3(C)C(OC(C)=O)C(OC(C)=O)C(=C1C)C2(C)C` (stereo not drawn) [1-Acetoxyl-5-deacetyl-baccatin I] reads below 0.01%.
In turn, `CC(=O)O[C@H]1C[C@@]2(O)[C@@H](OC(C)=O)[C@@H]3[C@@]4(CO4)[C@@H](OC(C)=O)C[C@H](OC(C)=O)[C@@]3(C)[C@@H](OC(C)=O)[C@H](OC(C)=O)C(=C1C)C2(C)C` [1-Hydroxybaccatin I] gave a Cross reaction rate (test concentration 1,000 ng/mL) below 0.01%.
On to `CC(=O)O[C@@]12CO[C@@H]1C[C@H](O)[C@@]1(C)C(=O)[C@H](O)C3=C(C)[C@@H](O)C[C@@](O)([C@@H](OC(=O)c4ccccc4)[C@H]21)C3(C)C` [10-Deacetyl-baccatin III], for which the Cross reaction rate (test concentration 1,000 ng/mL) is recorded as below 0.01%.
`CC(=O)O[C@@]12CO[C@@H]1C[C@H](O)[C@@]1(C)C(=O)[C@H](O)C3=C(C)[C@@H](OC(=O)[C@H](O)[C@@H](NC(=O)OC(C)(C)C)c4ccccc4)C[C@@](O)([C@@H](OC(=O)c4ccccc4)[C@H]21)C3(C)C` [Docetaxel]: where the note is “test concentration 1,000 ng/mL”, the Cross reaction rate was below 1%.
Regarding `CC(=O)O[C@H]1C(=O)[C@]2(C)[C@@H](O[C@@H]3OC[C@@H](O)[C@H](O)[C@H]3O)C[C@H]3OC[C@@]3(OC(C)=O)[C@H]2[C@H](OC(=O)c2ccccc2)[C@]2(O)C[C@H](OC(=O)[C@H](O)[C@@H](NC(=O)c3ccccc3)c3ccccc3)C(C)=C1C2(C)C` [7-Xylosyltaxol], the Cross reaction rate (test concentration 1,000 ng/mL) is listed as below 1%.
